pIC50: −log10 of the molar value.
Legend:
[1] = tested on: H1299 lung tumor xenografts; test: H1299 subcutaneous xenograft, Ad-mda7 with sulindac; conditions: vector 3×10^9 vp intratumoral thrice a week; sulindac 40 mg/kg i.p. daily
Method: In mice receiving sulindac, 40 mg/kg was administered i.p. every day. Animals were weighed once a week to determine the body weight. Tumor growth was monitored and measured three times a week as described previously (Saeki et al., 2002; Ramesh et al., 2003). At 22-25 days after initiation of the treatment all animals were killed via CO2 inhalation, and the tumors were removed for histopathologic examination and western blot analysis. Experiments were performed two separate times for reproducibility and statistical significance.

[2] = target: T1, proteasome in H1299 cells (Homo sapiens, UniProt P28074); test: Proteasome activity assay and ubiquitinated protein western blot; format: cell-based; conditions: vs untreated control cells
T1 construct: endogenous in cells; host or cells: H1299 human lung cancer cells, treated and then lysed; 20 µg total lysate protein per reaction
Method: Proteasome activity assays were performed as previously described (Choi et al., 2003). […] The sulindac concentrations tested were the same as those in the other assays. At 24 h after the start of treatment, the cells were lysed in proteasome buffer (10 mM Tris-HCl, pH 7.5, 1 mM EDTA, 20% glycerol, 5 mM ATP, and 4 mM DTT), sonicated, and then centrifuged at 1300×g at 4° C. for 10 min. The upper supernatant phase was collected, and the protein concentration of cell lysates was determined as previously described (Saeki et al., 2000).
To assay the chymotrypsin-like activity of the proteasome, the fluorogenic substrate Suc-LLVY-AMC (Chemicon International, Inc., Temecula, Calif.) was used. Twenty micrograms of total protein from each treatment group described above was diluted to 100 μl in reaction buffer (25 mM HEPES, pH 7.5, 0.5 mM EDTA, 0.05% NP-40, and 0.001% SDS). […] The intensity of fluorescence in each sample solution was measured using a fluorescence plate reader (Dynatech Laboratories, Chantily, Va.) at 360-nm excitatory and 460-nm emission wavelengths. All readings were standardized using the fluorescence intensity of an equal volume of free 7-Amino-4-methylcoumarin (AMC) solution (50 μM). The values were expressed as percentages for control greater than the internal positive control percentages provided by the supplier.

H1299 [3] = test: Cell proliferation assay (trypan blue); format: cell-based; conditions: Homo sapiens, NCI-H1299; read-out: IC50 of growth inhibition
Method: (§1) All three cell lines (A549, H1299, and CCD-16) were seeded in 60-mm-diameter tissue culture dishes at a density of 1×10^5 cells/dish in triplicate. […] The concentrations of sulindac tested were 0.125, 0.25, and 0.5 mM. At 72 h after the start of treatment, the cells were harvested by trypsinization, washed, and subjected to typan-blue exclusion assay as previously described (Saeki et al., 2000).

CCD-16 [4] = test: Ad-GFP transduction efficiency with sulindac (flow cytometry); format: cell-based, human; conditions: Ad-GFP 100 vp/cell, 24 h
Method: (§2) To determine the effect of sulindac on adenovirus transduction, tumor and normal cells were infected with Ad-GFP at 100 vp/cell and analyzed for GFP expression at 24 h by FACS.

H1299 [5] = test: as above; format: cell-based, human; conditions: Ad-GFP 100 vp/cell, 24 h
Method: as §2

A549 [6] = test: as above; format: cell-based, human; conditions: Ad-GFP 100 vp/cell, 24 h
Method: as §2

A549 [7] = test: Cell proliferation assay (trypan blue); format: cell-based, human
Method: as §1, with “The concentrations of sulindac tested were 0.125, 0.25, and 0.5 mM.” left out

CCD-16 [8] = test: Cell proliferation assay (trypan blue); format: cell-based, human
Method: as §1

H1299 [9] = test: Cell cycle distribution by FACS; format: cell-based, human; conditions: 72 h
Method: (§3) Each treatment group was tested in triplicate. The concentrations of sulindac used were the same as those for the cell-proliferation assay. At 72 h after the start of the treatment, cells were harvested, washed, and analyzed for cell cycle phases and apoptotic fraction as previously described (Saeki et al., 2000). The cell cycle phases and DNA contents were analyzed using FACScan (EPICS XL-MCL; Beckman Coulter, Fullerton, Calif.).

A549 [10] = test: Cell cycle distribution by FACS; format: cell-based, human; conditions: 72 h
Method: as §3

NF-κB = NF-κB activation by EMSA; format: cell-based, human; conditions: H1299 and A549

T1 sequence (P28074 60-263): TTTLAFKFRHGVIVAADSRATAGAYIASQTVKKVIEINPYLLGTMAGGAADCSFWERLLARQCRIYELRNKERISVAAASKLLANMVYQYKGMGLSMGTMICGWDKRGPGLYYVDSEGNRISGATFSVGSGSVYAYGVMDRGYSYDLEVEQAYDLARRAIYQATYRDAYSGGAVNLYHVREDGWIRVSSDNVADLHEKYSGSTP

Q: For `CC1=C(CC(=O)O)c2cc(F)ccc2/C1=C\c1ccc([S+](C)[O-])cc1` (centres unmarked) [Sulindac], which tumor growth [1] is on record?
A: No significant growth inhibition

Q: And the proteasome activity [2]?
A: does not inhibit

Q: What about the pIC50 (H1299 [3]) of the same molecule?
A: 3.21

Q: And the transduction efficiency (CCD-16 [4]; sulindac 0.125 mM)?
A: 12.1 ± 0.4%

Q: What about the transduction efficiency (CCD-16 [4]; sulindac 0.25 mM) of the same molecule?
A: 11.1 ± 1.0%

Q: What about the transduction efficiency (CCD-16 [4]; sulindac 0.5 mM) of the same molecule?
A: 13.7 ± 0.4%

Q: And the transduction efficiency (H1299 [5]; sulindac 0.125 mM)?
A: 80.0 ± 0.5%

Q: What about the transduction efficiency (H1299 [5]; sulindac 0.25 mM) of the same molecule?
A: 78.6 ± 1.2%

Q: What about the transduction efficiency (H1299 [5]; sulindac 0.5 mM) of the same molecule?
A: 82.7 ± 2.8%

Q: What about the transduction efficiency (A549 [6]; sulindac 0.125 mM) of the same molecule?
A: 52.4 ± 0.6%

Q: What about the transduction efficiency (A549 [6]; sulindac 0.25 mM) of the same molecule?
A: 51.5 ± 1.3%

Q: And the transduction efficiency (A549 [6]; sulindac 0.5 mM)?
A: 65.0 ± 1.5 + a %

Q: What about the pIC50 (A549 [7]; Homo sapiens, A549, read-out: IC50 of growth inhibition) of the same molecule?
A: 3.24

Q: And the “inhibitory effect on cell proliferation” value (A549 [7]; tumor cells, 1 and 2 mM)?
A: > 90%

Q: And the pIC50 (CCD-16 [8]; Homo sapiens, read-out: IC50 of growth inhibition)?
A: 3.03

Q: And the “inhibitory effect on cell proliferation” value (CCD-16 [8]; normal cells, 1 and 2 mM)?
A: 60%

Q: What about the “cells in G1” value (H1299 [9]; sulindac 0.125 mM) of the same molecule?
A: 66.4%

Q: And the “cells in G2/M” value (H1299 [9]; sulindac 0.125 mM)?
A: 11.4%

Q: What about the “cells in S” value (H1299 [9]; sulindac 0.125 mM) of the same molecule?
A: 22.3%

Q: And the “cells in G1” value (H1299 [9]; sulindac 0.5 mM)?
A: 74.6%

Q: What about the “cells in G2/M” value (H1299 [9]; sulindac 0.5 mM) of the same molecule?
A: 12.7%

Q: What about the “cells in S” value (H1299 [9]; sulindac 0.5 mM) of the same molecule?
A: 13.0%

Q: What about the “cells in G1” value (A549 [10]; sulindac 0.125 mM) of the same molecule?
A: 64.8%

Q: What about the “cells in G2/M” value (A549 [10]; sulindac 0.125 mM) of the same molecule?
A: 6.4%

Q: What about the “cells in S” value (A549 [10]; sulindac 0.125 mM) of the same molecule?
A: 28.9%

Q: And the “cells in G1” value (A549 [10]; sulindac 0.5 mM)?
A: 75.6%

Q: And the “cells in G2/M” value (A549 [10]; sulindac 0.5 mM)?
A: 6.0%

Q: What about the “cells in S” value (A549 [10]; sulindac 0.5 mM) of the same molecule?
A: 18.5%

Q: What about the NF-κB activation (NF-κB) of the same molecule?
A: inhibit NF-κB activation
